pIC50, pKi: −log10 of the molar value. Marks after values point to notes of the source that are not given here.
How the values were obtained:
Plasma stability, human = format: in vitro ADME
From the text: Plasma stability is a measure of the stability of small molecules and peptides in plasma and is an important parameter that can strongly influence the in vivo efficacy of a test compound. Drug candidates are exposed in plasma to enzymatic processes (proteinases, esterases), and they can undergo intramolecular rearrangement or bind irreversibly (covalently) to proteins.

[1] = Stability in PBS at room temperature; format: physicochemical; conditions: 48 hours, <0.1% DMSO
KOP receptor [2] = target: T1, KOP receptor (Homo sapiens, UniProt P41145); assay: 35S-GTPγS coupling, inhibition; format: biochemical
[3] = pH 7.4
Method: (§1) PAMPA is used as an in vitro model of passive, transcellular permeability. An artificial membrane immobilized on a filter is placed between a donor and acceptor compartment. At the start of the test, drug is introduced in the donor compartment (at various pH). Following the permeation period, the concentrations of compound in the donor compartment and acceptor compartment are measured using UV spectroscopy.

Beta2 = Beta2 (Homo sapiens, UniProt P07550); assay: PDSP radioligand binding assay
Method: (§2) The compound was initially screened in radioligand binding assays at a constant concentration (10 μM) to identify possible activity of the compound. Results showing significant activity in the initial screen were selected for Ki determinations.
(§3) As a representative of the Chemotype II series, the MLPCN probe molecule 2{8} was subjected to a binding assay panel of 44 GPCR and other molecular targets by the Pyschoactive Drug Screening Program (PDSP) (Table 10). The compound was initially screened in a radioligand binding assay at a constant concentration (10 μM) to identify possible activity of the compound. Results showing significant activity in the initial screen were selected for Ki determinations.

D1 = D1 (Homo sapiens, UniProt P21728); assay: PDSP radioligand binding assay
Method: as §2, §3

Beta3 = Beta3 (Homo sapiens, UniProt P13945); assay: PDSP radioligand binding assay
Method: as §2, §3

SERT = SERT (Homo sapiens, UniProt P31645); assay: PDSP radioligand binding assay
Method: as §2, §3

M3 = M3 (Homo sapiens, UniProt P20309); assay: PDSP radioligand binding assay
Method: as §2, §3

5ht2a = 5ht2a (Homo sapiens, UniProt P28223); assay: PDSP radioligand binding assay
Method: as §2, §3

5ht1d = 5ht1d (Homo sapiens, UniProt P28221); assay: PDSP radioligand binding assay
Method: as §2, §3

H1 = H1 (Homo sapiens, UniProt P35367); assay: PDSP radioligand binding assay
Method: as §2, §3

H4 = H4 (Homo sapiens, UniProt Q9H3N8); assay: PDSP radioligand binding assay
Method: as §2, §3

NET = NET (Homo sapiens, UniProt P23975); assay: PDSP radioligand binding assay
Method: as §2, §3

5ht1b = 5ht1b (Homo sapiens, UniProt P28222); assay: PDSP radioligand binding assay
Method: as §2, §3

5ht5a = 5ht5a (Homo sapiens, UniProt P47898); assay: PDSP radioligand binding assay
Method: as §2, §3

Alpha2A = Alpha2A (Homo sapiens, UniProt P08913); assay: PDSP radioligand binding assay
Method: as §2, §3

5ht2c = 5ht2c (Homo sapiens, UniProt P28335); assay: PDSP radioligand binding assay
Method: as §2, §3

Sigma1 = assay: PDSP radioligand binding assay
Method: as §2, §3

in vitro = conditions: for Papp: PAMPA
Method: as §1

MOR = MOR (Homo sapiens, UniProt P35372); assay: High content imaging β-arrestin translocation assay, MOR antagonist (MOR HCS); format: cell-based; conditions: antagonist; average; read-out: Potency, Antitarget MOR HCS
From the text: (§4) In this campaign, two assay platforms were employed to evaluate KOR activity and selectivity: the KOR1 DISCOVERX β-Arrestin […] assay and an imaging based β-arrestin translocation assay for confirmatory and selectivity assays. The KOR1 DISCOVERX β-Arrestin […] assay is a commercial platform for direct measurement of GPCR (G protein-coupled receptor) activation by detection of β-Arrestin binding to the KOR. […] In cells that stably express these fusion proteins, ligand stimulation results in the recruitment of β-Arrestin by the GPCR. This interaction encourages the complementation of the two β-galactosidase fragments resulting in the formation of a functional enzyme that converts substrate in the assay medium to a detectable signal. The imaging based high-content β-arrestin translocation assay is based upon the redistribution of β-Arrestin linked to green fluorescent protein (GFP) to the cell surface and detection (Barak, et al. (1997) J. Biol. Chem. 272:27497-27500).
(§5) Initially, a portion (approximately 290,000 compounds) of the MLSMR compound collection was tested in the KOR1 DISCOVERX β-arrestin primary kappa opioid (KOP) agonist and antagonist screens (PUBCHEM AID 1777 and 1778, respectively) at a single concentration point (10 μM). […] These compounds were concurrently tested in a β-galactosidase counterscreen assay (PUBCHEM AID 1966) to assess the possibility that these compounds might inhibit the reporting enzyme. […] The KOR:DOR:MOR selectivity of the compounds was determined using the analogous β-arrestin translocation assays for the DOR (PUBCHEM AID 2370 and 2357, for agonists and antagonist, respectively) and the MOR (PUBCHEM AID 2352 and 2420, for agonists and antagonists, respectively).

KOP receptor [4] = target: T1, KOP receptor; assay: ERK 1/2 activation, inhibition; format: cell-based
DOR = DOR (Homo sapiens, UniProt P41143); assay: High content imaging β-arrestin translocation assay, DOR antagonist (DOR HCS); format: cell-based; conditions: antagonist; average; read-out: Potency, Antitarget DOR HCS
From the text: as §4, §5

DAT = DAT (Homo sapiens, UniProt Q01959); assay: PDSP radioligand binding assay; conditions: Table 10
Method: as §2, with “The broader selectivity of compound 1{3} was tested against additional targets and basic pharmacological properties were assessed. […] The” for “The”
as §3

[5] = test system: Fa2N-4 immortalized human hepatocytes; assay: Hepatocyte toxicity; conditions: read-out: LC50; Fa2N-4 hepatocytes

Chain of 5ht1d (P28221 whole entry, species assumed): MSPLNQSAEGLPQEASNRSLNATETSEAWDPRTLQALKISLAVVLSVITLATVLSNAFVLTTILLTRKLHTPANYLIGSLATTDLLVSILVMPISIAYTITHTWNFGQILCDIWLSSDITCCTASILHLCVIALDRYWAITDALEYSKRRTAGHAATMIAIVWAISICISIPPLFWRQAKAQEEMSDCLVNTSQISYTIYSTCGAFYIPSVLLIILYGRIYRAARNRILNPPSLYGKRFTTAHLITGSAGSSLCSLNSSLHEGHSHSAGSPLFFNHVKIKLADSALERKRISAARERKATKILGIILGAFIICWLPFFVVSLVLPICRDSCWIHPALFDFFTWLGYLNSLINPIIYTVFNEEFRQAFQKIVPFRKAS
Chain of H4 (Q9H3N8 whole entry): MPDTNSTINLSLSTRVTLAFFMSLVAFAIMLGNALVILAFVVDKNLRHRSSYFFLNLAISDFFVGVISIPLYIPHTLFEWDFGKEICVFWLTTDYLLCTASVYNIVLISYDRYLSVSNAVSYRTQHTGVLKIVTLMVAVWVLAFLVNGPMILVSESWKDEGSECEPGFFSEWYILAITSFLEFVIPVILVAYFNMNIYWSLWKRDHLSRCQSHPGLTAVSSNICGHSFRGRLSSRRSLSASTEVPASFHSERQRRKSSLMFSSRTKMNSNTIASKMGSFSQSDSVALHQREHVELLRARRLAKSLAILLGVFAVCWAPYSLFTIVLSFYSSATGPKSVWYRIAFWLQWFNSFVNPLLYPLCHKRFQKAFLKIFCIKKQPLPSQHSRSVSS
Chain of NET (P23975 whole entry): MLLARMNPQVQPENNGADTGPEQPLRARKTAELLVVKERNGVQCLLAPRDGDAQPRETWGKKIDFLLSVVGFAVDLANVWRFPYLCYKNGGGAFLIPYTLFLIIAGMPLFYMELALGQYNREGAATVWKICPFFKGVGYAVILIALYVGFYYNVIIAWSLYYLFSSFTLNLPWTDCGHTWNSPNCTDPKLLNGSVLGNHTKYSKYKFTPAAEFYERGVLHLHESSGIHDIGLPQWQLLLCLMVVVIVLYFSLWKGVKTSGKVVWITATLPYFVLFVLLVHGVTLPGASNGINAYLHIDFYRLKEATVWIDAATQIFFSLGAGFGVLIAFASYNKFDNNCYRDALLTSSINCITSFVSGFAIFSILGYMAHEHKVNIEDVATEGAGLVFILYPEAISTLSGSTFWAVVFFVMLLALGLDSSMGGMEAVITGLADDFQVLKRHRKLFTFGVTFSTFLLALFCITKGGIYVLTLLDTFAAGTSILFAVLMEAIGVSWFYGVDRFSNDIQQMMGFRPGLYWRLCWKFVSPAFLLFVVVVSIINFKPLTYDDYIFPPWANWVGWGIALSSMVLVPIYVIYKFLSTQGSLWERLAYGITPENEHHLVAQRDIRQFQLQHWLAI
Chain of 5ht1b (P28222 whole entry, species assumed): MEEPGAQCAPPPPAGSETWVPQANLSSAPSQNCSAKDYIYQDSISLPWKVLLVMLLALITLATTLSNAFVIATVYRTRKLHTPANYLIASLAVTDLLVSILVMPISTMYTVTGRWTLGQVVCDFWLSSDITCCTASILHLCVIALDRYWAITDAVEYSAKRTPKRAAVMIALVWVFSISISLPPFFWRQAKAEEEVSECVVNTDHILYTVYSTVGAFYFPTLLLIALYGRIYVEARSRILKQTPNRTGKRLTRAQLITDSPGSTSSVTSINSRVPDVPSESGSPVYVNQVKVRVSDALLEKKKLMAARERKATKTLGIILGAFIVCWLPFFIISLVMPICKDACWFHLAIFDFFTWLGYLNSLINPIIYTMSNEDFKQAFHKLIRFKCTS
Chain of SERT (P31645 whole entry, species assumed): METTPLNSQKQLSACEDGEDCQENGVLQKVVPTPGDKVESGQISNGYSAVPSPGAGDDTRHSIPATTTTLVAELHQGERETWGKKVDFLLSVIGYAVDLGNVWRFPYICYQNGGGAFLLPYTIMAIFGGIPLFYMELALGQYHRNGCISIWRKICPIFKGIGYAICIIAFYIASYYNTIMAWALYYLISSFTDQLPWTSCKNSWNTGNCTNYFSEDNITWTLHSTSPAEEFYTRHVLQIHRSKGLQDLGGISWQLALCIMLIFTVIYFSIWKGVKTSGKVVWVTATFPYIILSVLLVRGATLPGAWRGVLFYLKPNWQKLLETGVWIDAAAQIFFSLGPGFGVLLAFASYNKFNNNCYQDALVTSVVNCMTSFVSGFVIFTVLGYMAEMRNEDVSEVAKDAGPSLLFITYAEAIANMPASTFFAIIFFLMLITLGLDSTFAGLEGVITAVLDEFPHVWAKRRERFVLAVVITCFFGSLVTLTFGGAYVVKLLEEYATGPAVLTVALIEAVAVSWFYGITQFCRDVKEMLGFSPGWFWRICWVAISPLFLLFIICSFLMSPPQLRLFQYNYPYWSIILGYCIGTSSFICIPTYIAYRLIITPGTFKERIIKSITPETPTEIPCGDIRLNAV
Chain of 5ht2a (P28223 whole entry, species assumed): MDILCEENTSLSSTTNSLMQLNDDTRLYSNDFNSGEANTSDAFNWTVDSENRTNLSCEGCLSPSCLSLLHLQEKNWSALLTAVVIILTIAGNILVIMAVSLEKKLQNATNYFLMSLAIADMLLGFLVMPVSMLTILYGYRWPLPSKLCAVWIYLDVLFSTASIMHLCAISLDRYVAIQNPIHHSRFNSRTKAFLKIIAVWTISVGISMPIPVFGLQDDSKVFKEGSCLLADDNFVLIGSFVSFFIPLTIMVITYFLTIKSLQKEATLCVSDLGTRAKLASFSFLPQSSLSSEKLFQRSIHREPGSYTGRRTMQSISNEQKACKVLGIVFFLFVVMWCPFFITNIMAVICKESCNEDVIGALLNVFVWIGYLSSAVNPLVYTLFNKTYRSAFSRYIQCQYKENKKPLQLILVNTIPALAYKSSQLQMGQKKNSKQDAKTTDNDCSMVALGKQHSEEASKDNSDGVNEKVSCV
Chain of 5ht5a (P47898 whole entry, species assumed): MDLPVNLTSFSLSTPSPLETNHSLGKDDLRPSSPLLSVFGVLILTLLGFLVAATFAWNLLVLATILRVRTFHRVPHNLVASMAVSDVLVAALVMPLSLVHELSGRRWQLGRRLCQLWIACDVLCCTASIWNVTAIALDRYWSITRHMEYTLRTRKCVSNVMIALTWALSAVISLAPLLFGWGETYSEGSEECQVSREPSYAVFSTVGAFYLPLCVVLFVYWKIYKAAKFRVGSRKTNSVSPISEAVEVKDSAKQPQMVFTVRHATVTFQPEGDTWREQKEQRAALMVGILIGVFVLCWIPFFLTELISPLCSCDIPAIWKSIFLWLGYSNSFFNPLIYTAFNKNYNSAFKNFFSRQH
Chain of H1 (P35367 whole entry): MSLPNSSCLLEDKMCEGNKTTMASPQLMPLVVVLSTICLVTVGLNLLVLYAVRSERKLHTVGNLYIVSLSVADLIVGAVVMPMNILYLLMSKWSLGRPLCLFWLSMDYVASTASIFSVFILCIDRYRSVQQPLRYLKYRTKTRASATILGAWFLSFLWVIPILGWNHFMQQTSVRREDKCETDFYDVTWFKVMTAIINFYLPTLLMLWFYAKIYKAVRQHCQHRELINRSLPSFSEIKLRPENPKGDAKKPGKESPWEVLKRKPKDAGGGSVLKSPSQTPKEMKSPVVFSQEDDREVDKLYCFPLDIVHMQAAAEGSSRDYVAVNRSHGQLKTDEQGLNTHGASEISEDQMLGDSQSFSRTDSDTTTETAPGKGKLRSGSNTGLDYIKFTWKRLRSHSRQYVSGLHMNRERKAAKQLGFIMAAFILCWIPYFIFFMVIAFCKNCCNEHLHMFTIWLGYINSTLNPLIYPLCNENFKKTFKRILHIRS
Chain of Alpha2A (P08913 whole entry): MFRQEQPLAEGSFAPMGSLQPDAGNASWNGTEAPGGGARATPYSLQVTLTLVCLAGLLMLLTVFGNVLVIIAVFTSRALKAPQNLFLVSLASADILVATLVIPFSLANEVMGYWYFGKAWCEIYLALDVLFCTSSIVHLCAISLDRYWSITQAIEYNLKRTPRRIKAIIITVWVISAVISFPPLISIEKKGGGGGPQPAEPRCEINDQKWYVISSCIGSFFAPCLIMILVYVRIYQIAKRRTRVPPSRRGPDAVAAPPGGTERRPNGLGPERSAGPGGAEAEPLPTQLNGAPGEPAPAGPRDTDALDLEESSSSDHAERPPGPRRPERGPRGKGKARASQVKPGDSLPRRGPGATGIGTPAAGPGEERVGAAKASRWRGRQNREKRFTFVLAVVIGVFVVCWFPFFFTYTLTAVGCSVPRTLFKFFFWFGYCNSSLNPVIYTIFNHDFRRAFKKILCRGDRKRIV
Chain of Beta2 (P07550 whole entry): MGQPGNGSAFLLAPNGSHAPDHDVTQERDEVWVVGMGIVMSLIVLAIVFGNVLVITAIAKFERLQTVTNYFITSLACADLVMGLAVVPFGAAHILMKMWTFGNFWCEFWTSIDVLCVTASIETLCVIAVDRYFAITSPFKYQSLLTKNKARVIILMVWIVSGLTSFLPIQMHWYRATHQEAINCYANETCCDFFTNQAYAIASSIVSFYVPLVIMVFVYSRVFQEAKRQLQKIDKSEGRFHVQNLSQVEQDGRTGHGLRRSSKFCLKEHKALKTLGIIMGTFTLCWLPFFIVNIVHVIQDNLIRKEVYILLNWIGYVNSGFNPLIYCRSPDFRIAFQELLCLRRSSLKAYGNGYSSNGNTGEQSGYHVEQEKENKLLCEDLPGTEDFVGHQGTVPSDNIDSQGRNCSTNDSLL
Chain of DOR (P41143 whole entry): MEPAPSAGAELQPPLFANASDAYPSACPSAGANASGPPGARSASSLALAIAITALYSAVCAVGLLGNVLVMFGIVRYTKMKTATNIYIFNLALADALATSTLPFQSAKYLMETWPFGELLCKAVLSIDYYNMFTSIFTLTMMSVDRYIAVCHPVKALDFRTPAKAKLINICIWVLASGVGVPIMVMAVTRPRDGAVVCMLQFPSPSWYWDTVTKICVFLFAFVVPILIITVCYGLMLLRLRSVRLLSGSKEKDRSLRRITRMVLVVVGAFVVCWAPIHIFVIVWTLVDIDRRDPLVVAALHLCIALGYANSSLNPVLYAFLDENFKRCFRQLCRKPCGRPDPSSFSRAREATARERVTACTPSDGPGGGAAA

COc1ccc(N2CCN(CCCNC(=O)Cn3c(=O)c4cccn4c4c(C)ccnc43)CC2)cc1 [Compound 1{3}, N-(3-(4-(4-Methoxyphenyl)piperazin-1-yl)propyl)-2-(1-methyl-6-oxopyrido[2,3-e]pyrrolo[1,2-a]pyrazin-5(6H)-yl)acetamide]
plasma stability, remaining (Plasma stability, human; human, plasma, 3 h): 100% | parent compound remaining [1]: 94.42% | Imax (% NBNI) (KOP receptor [2]): 117 ± 5^a % NBNI | blood brain barrier PAMPA permeability [3]: 51 ×10⁻⁶ cm/s | pKi (Beta2; Table 5): < 5.00 | pKi (D1; Table 5): < 5.00 | pKi (Beta3; Table 5): < 5.00 | pKi (SERT; Table 5): 5.27 | pKi (M3; Table 5): < 5.00 | pKi (5ht2a; Table 5): < 5.00 | pKi (5ht1d; Table 5): 6.15 | pKi (H1; Table 5): 6.34 | pKi (H4; Table 5): < 5.00 | pKi (NET; Table 5): 6.16 | pKi (5ht1b; Table 5): < 5.00 | pKi (5ht5a; Table 5): < 5.00 | pKi (Alpha2A; Table 5): < 5.00 | pKi (5ht2c; Table 5): < 5.00 | pKi (Sigma1; Table 5): < 5.00 | Papp (in vitro; pH 5): 27 ×10⁻⁶ cm/s | Papp (in vitro; pH 6.2): 227 ×10⁻⁶ cm/s | Papp (in vitro; pH 7.4): 757 ×10⁻⁶ cm/s | pIC50 (MOR): < 4.49 | Imax (% NBNI) (KOP receptor [4]): 90 ± 2^a % NBNI | pIC50 (DOR): < 4.49

Clc1ccc(CSc2nnc(-c3ccccn3)n2Cc2ccco2)cc1Cl [Compound 2{8}]
plasma stability, remaining (Plasma stability, human; human plasma, 3 hours): 100% | pKi (Beta2; Table 10): < 5.00 | pKi (D1; Table 10): 5.75 | pKi (Beta3; Table 10): 5.14 | pKi (SERT; Table 10): < 5.00 | pKi (M3; Table 10): < 5.00 | pKi (5ht2a; Table 10): 5.42 | pKi (5ht1d; Table 10): < 5.00 | pKi (H1; Table 10): < 5.00 | pKi (H4; Table 10): < 5.00 | pKi (NET; Table 10): 5.23 | pKi (5ht1b; Table 10): < 5.00 | pKi (5ht5a; Table 10): 5.30 | pKi (Alpha2A; Table 10): < 5.00 | pKi (5ht2c; Table 10): < 5.00 | pKi (Sigma1; Table 10): < 5.00 | pKi (DAT): < 5.00 | CC50 [5]: > 50 µM | PAMPA permeability (in vitro; donor pH 5): 1793 ×10⁻⁶ cm/s | PAMPA permeability (in vitro; donor pH 6.2): 1921 ×10⁻⁶ cm/s | PAMPA permeability (in vitro; donor pH 7.4): 2089 ×10⁻⁶ cm/s
